Experimental data as given in US7135466B2 (Kirin Beer Kabushiki Kaisha, priority 1999, dated 2006).
Read-outs that look alike come from different tables or passages of the source.

Target: T1, PDGF-Ra (Homo sapiens, UniProt P16234)
T1 construct: host or cells: G-292 human osteosarcoma cells
Test: Inhibitory activity against PDGF-Ra phosphorylation by PDGF-AA stimulation using G292
Format: cell-based
Conditions: for IC50: > means inhibition at indicated concentration not more than 50%, < and << not less than 50%, read-out: PDGF (E) IC50; for inhibition at 0.1 µM: G292, at 100 nM, read-out: PDGF (E) inhibition (%) at 100 nM
Experimental: Measurement of Inhibitory Activity Against PDGF-Ra Phosphorylation by PDGF-AA Stimulation Using G292
G-292 human osteosarcoma cells (Dainippon Pharmaceutical Co. Ltd.) were cultured in a DMEM medium (Dainippon Pharmaceutical Co. Ltd.) containing 10% FBS within an incubator containing 5% carbon dioxide until 80% confluent, and the cells were planted at 3×10^4 cells per well in 96-well flat-bottom plates in the same medium containing 0.1% FBS. After cultivation at 37° C. overnight, a solution of a test compound in dimethyl sulfoxide was added to each well, and a reaction was allowed to proceed at 37° C. for one hr.
After the reaction of the test compound, PDGF-AA (Upstate) was added to 50 ng/ml, and the cells were stimulated at 37° C. for 5 min. Thereafter, the cells were solubilized and shaken at room temperature for 20 min.
This solubilized cell solution was transferred to a 96-well plate coated with aniti-phosphotyrosine antibody PY-20, and a reaction was allowed to proceed at 4° C. overnight. Anti-PDGF-Ra (c-20) (Santa Cruz) was added as a primary antibody, and a reaction was allowed to proceed for one hr. GAR (Anti-rabbit Ig, horseradish peroxidase, Amersham) was then added as a secondary antibody, and a reaction was allowed to proceed for one hr. Color development was carried out using a color development kit for peroxidase (Sumitomo Bakelite Co., Ltd.), and the absorbance was measured at 450 nm.

[1] = figure within parentheses in >100( )

T1 sequence (P16234 24-1089): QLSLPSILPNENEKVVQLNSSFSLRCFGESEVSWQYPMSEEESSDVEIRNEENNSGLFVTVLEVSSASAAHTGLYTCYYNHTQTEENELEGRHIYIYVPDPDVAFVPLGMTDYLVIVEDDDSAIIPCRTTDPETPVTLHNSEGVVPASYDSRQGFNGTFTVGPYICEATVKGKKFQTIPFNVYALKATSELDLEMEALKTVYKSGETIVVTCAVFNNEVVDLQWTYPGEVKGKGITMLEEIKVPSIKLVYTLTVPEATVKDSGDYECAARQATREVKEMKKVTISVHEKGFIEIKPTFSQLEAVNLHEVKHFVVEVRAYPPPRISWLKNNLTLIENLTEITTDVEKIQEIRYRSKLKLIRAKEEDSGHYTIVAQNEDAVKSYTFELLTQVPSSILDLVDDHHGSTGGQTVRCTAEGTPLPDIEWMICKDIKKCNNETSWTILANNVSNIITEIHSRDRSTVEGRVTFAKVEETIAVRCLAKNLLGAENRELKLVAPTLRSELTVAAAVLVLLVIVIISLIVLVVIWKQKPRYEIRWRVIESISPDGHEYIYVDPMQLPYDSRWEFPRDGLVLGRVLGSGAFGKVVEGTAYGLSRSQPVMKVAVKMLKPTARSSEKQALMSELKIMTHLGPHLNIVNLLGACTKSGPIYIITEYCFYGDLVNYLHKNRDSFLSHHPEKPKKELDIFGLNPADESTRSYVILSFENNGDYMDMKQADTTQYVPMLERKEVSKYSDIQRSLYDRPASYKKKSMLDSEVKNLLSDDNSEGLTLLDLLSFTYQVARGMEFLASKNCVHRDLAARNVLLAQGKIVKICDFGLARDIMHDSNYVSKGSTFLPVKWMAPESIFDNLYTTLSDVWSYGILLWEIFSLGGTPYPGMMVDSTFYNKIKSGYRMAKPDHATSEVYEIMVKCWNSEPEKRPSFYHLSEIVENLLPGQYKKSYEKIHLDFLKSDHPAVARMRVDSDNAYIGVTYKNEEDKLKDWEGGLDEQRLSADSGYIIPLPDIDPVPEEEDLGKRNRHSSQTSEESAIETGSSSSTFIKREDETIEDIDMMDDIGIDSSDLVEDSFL

IC50 [nM] | Molecule | other results
< 10 | COc1cc2nccc(Oc3ccc(NC(=S)NC(=O)c4ccccc4F)cc3F)c2cc1OC [Example 1160, N-{4-[(6,7-Dimethoxy-4-quinolyl)oxy]-3-fluorophenyl}-N′-(2-fluorobenzoyl)thiourea] | 
> 100 | COc1cc2ncnc(Oc3ccc(NC(=S)NCCNC(C)=O)cc3)c2cc1OC [Example 519] | inhibition at 0.1 µM [1]: 22%
72 | COc1cc2nccc(Oc3ccc(NC(=S)NC(=O)Cc4ccccc4[N+](=O)[O-])cc3Cl)c2cc1OC [Example 736, N-{3-Chloro-4-[(6,7-dimethoxy-4-quinolyl)oxy]phenyl}-N′-[2-(2-nitrophenyl)acetyl]thiourea] | 
> 100 | COc1cc2nccc(Oc3ccc(NC(=S)NC(=O)c4ccc(C5CCCCC5)cc4)cc3)c2cc1OC [Example 1124, N-(4-Cyclohexylbenzoyl)-N′-{4-[(6,7-dimethoxy-4-quinolyl)oxy]phenyl}thiourea] | inhibition at 0.1 µM (figure in parentheses in >100( )): 22%
> 100 | COc1cc2nccc(Oc3ccc(NC(=S)NC(=O)c4cccc(Br)c4)c(Cl)c3)c2cc1OC [Example 1165, N-(3-Bromobenzoyl)-N′-{2-chloro-4-[(6,7-dimethoxy-4-quinolyl)oxy]phenyl}thiourea] | 
> 100 | COc1cc2nccc(Oc3ccc(NC(=S)NC(=O)C(C)Oc4ccccc4)cc3Cl)c2cc1OC (stereo not shown) [Example 746, N-{3-Chloro-4-[(6,7-dimethoxy-4-quinolyl)oxy]phenyl}-N′-(2-phenoxypropanoyl)thiourea] | inhibition at 0.1 µM [1]: 31%
< 10 | COc1cc2ncnc(Oc3ccc(NC(=S)NC(=O)c4cccc(F)c4)cc3)c2cc1OC [Example 1164, N-{4-[(6,7-Dimethoxy-4-quinazolinyl)oxy]phenyl}-N′-(3-fluorobenzoyl)thiourea] | 
> 100 | COc1cc2nccc(Oc3cc(C)c(NC(=O)OCCN4C(=O)c5ccccc5C4=O)cc3C)c2cc1OC [Example 419, 2-(1,3-Dioxo-2,3-dihydro-1H-2-isoindolyl)ethyl N-{4-[(6,7-dimethoxy-4-quinolyl)oxy]-2,5-dimethylphenyl}carbamate] | inhibition at 0.1 µM [1]: 47%
> 100 | CCN(CC)CCCNC(=S)Nc1cc(C)c(Oc2ccnc3cc(OC)c(OC)cc23)cc1C [Example 551, N-{4-[(6,7-Dimethoxy-4-quinolyl)oxy]-2,5-dimethylphenyl}-N′-(3-diethylaminopropyl)thiourea] | inhibition at 0.1 µM [1]: 19%

More lines, now with the values behind:

Molecule | IC50 [nM] | other results
COc1cc2nccc(Oc3ccc(NC(=S)NC(=O)CCc4cccc(C)c4)cc3Cl)c2cc1OC [Example 1184, N-{3-Chloro-4-[(6,7-dimethoxy-4quinolyl)oxy]phenyl}-N′-[3-(3-methylphenyl)propanoyl]thiourea] | 55 | 
CCC(C(=O)NC(=S)Nc1ccc(Oc2ccnc3cc(OC)c(OC)cc23)c(Cl)c1)c1ccccc1 (stereo not shown) [Example 748, N-{3-Chloro-4-[(6,7-dimethoxy-4-quinolyl)oxy]phenyl}-N′-(2-phenylbutanoyl)thiourea] | 85 | 
COc1cc2nccc(Oc3ccc(NC(=O)NN4CCCCC4)c(C)c3C)c2cc1OC [Example 593, N-{4-[(6,7-Dimethoxy-4-quinolyl)oxy]-2,3-dimethylphenyl}-N′-(1-piperidinyl)urea] | 51 | 
COc1cc2ncnc(Oc3ccc(NC(=S)NC(=O)C(C)(C)C)cc3)c2cc1OC [Example 1188, N-{4-[(6,7-Dimethoxy-4-quinazolinyl)oxy]phenyl}-N′-(2,2-dimethylpropanoyl)thiourea] | 76 | 
COc1cc2nccc(Oc3cc(C)c(NC(=O)OC(C)c4cccc(OC(F)(F)F)c4)cc3C)c2cc1OC (stereo not shown) [Example 182, 1-[3-(Trifluoromethoxy)phenyl]ethyl N-{4-[(6,7-dimethoxy-4-quinolyl)oxy]-2,5-dimethylphenyl}carbamate] |  | IC50 (Pharmacological Test Example 1): > 100 nM
N-{4-[(6,7-Dimethoxy-4-quinolyl)oxy]-2,5-dimethylphenyl}-N′-(N-cyclohexylamino)thiourea [Example 523] | > 100 | 
COc1cc2nccc(Oc3ccc(NC(=S)NC(=O)C(C)(C)Oc4ccc(Cl)cc4)cc3)c2cc1OC [Example 757, N-[2-(4-Chlorophenoxy)-2-methylpropanoyl]-N′-{4-[(6,7-dimethoxy-4-quinolyl)oxy]phenyl}thiourea] | > 100 | inhibition at 0.1 µM [1]: 45%
COc1cc2nccc(Oc3cc(C)c(NC(=O)Sc4ccc(Cl)cc4C)cc3C)c2cc1OC [Example 178, 4-Chloro-2-methylphenyl{4-[(6,7-dimethoxy-4-quinolyl)oxy]-2,5-dimethylanilino}methanethioate] |  | IC50 (Pharmacological Test Example 1): > 100 nM
COc1cc2nccc(Oc3cc(C)c(NC(=O)OCCN(C)C)cc3C)c2cc1OC [Example 190, 2-(Dimethylamino)ethyl N-{4-[(6,7-dimethoxy-4-quinolyl)oxy]-2,5-dimethylphenyl}carbamate] |  | IC50 (Pharmacological Test Example 1): > 100 nM
COc1cc2ncnc(Oc3ccc(NC(=O)OC(c4ccccc4)C(C)C)cc3)c2cc1OC (stereo not shown) [Example 198, 2-Methyl-1-phenylpropyl N-{4-[(6,7-dimethoxy-4-quinazolinyl)oxy]phenyl}carbamate] |  | IC50 (Pharmacological Test Example 1): 21 nM
COc1cc2nccc(Oc3ccc(NC(=S)NC(=O)c4cc(Cl)cc(Cl)c4)c(Cl)c3)c2cc1OC [Example 1159, N-{2-Chloro-4-[(6,7-dimethoxy-4-quinolyl)oxy]phenyl}-N′-(3,5-dichlorobenzoyl)thiourea] | > 100 | 
1-[3-(Trifluoromethoxy)phenyl]ethyl N-{4-[(6,7-dimethoxy-4-quinolyl)oxy]-2,3-dimethylphenyl}carbamate [Example 181] |  | IC50 (Pharmacological Test Example 1): > 100 nM
CCCC(OC(=O)Nc1ccc(Oc2ccnc3cc(OC)c(OC)cc23)c(C)c1C)c1ccccc1 (stereo not shown) [Example 185, 1-Phenylbutyl N-{4-[(6,7-dimethoxy-4-quinolyl)oxy]-2,3-dimethylphenyl}carbamate] |  | IC50 (Pharmacological Test Example 1): 46 nM
COc1cc2nccc(Oc3cc(C)c(NC(=O)OC(C#N)c4ccccc4)cc3C)c2cc1OC (stereo not shown) [Example 454, Cyano(phenyl)methyl N-{4-[(6,7-dimethoxy-4-quinolyl)oxy]-2,5-dimethylphenyl}carbamate] | > 100 | inhibition at 0.1 µM [1]: 23%
COc1cc2nccc(Oc3cc(C)c(NC(=O)Oc4cccc(C#N)c4)cc3C)c2cc1OC [Example 458, 3-Cyanophenyl N-{4-[(6,7-dimethoxy-4-quinolyl)oxy]-2,5-dimethylphenyl}carbamate] | > 100 | inhibition at 0.1 µM [1]: 18%
COc1cc2nccc(Oc3ccc(NC(=S)NCCN4CCCCC4)c(C)c3C)c2cc1OC [Example 512, N-{4-[(6,7-Dimethoxy-4-quinolyl)oxy]-2,3-dimethylphenyl}-N′-(2-piperidinylethyl)thiourea] | 29 | 
COc1cc2ncnc(Oc3ccc(NC(=O)Oc4ccccc4C#N)cc3)c2cc1OC [Example 456, 2-Cyanophenyl N-{4-[(6,7-dimethoxy-4-quinazolinyl)oxy]phenyl}carbamate] | > 100 | inhibition at 0.1 µM [1]: 21%
CCCC(OC(=O)Nc1cc(C)c(Oc2ccnc3cc(OC)c(OC)cc23)cc1C)c1ccccc1 (stereo not shown) [Example 186, 1-Phenylbutyl N-{4-[(6,7-dimethoxy-4-quinolyl)oxy]-2,5-dimethylphenyl}carbamate] |  | IC50 (Pharmacological Test Example 1): 63 nM
COc1cc2ncnc(Oc3ccc(NC(=O)OC(C)c4ccccc4Br)c(Cl)c3)c2cc1OC (stereo not shown) [Example 116, 1-(2-Bromophenyl)ethyl N-{2-chloro-4-[(6,7-dimethoxy-4-quinazolinyl)oxy]phenyl}carbamate] |  | IC50 (Pharmacological Test Example 1): 31 nM
